{
  "source": "patent US12077503B2",
  "about": "“Substituted cyclic amides and their use as herbicides” (FMC CORPORATION, priority 2015, dated 2024)",
  "assay_type_in_all_cases": "in vivo",
  "key": {"[1]": {"tested_on": "ducksalad (Heteranthera limosa)", "assay": "Test B flooded paddy test", "conditions": "Heteranthera limosa, 250 g ai/ha, Flood; 0 to 100 scale where 0 is no effect and 100 is complete control; read-out: Ducksalad plant response rating", "how_it_was_run": "(§1)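 Response scored visually against untreated controls, 0 = no effect and 100 = complete control, 13–15 d after treatment in the greenhouse. Compounds added to paddy water held 3 cm above soil surface. Treatment given at 2-leaf stage.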"}, "[2]": {"tested_on": "sedge, umbrella (small-flower umbrella sedge, Cyperus difformis)", "assay": "Test B flooded paddy test", "conditions": "Cyperus difformis, 250 g ai/ha, Flood; 0 to 100 scale where 0 is no effect and 100 is complete control; read-out: Sedge, Umbrella plant response rating", "how_it_was_run": "as §1"}, "[3]": {"tested_on": "barnyardgrass (Echinochloa crus-galli)", "assay": "Test B flooded paddy test", "conditions": "Echinochloa crus-galli, 250 g ai/ha, Flood; 0 to 100 scale where 0 is no effect and 100 is complete control; read-out: Barnyardgrass plant response rating", "how_it_was_run": "as §1"}, "rice (Oryra sativa)": {"tested_on": "rice (Oryra sativa)", "assay": "Test B flooded paddy test", "conditions": "Oryza sativa, 250 g ai/ha, Flood; 0 to 100 scale where 0 is no effect and 100 is complete control; read-out: Rice plant response rating", "how_it_was_run": "as §1"}, "[4]": {"tested_on": "ryegrass, Italian (Italian ryegrass, Lolium multiflorum)", "assay": "Test A preemergence", "conditions": "Lolium multiflorum, pre-emergence, 240 h, 0 to 100 scale where 0 is no effect and 100 is complete control, read-out: Ryegrass, Italian plant response rating", "how_it_was_run": "(§2)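 Each rating is a visual injury score from 0 to 100 given about 10 d after treatment, judged against untreated controls kept alongside in the greenhouse. In loam soil–sand blend, seeds got a preemergence directed soil spray, while postemergence plants were 2 to 10 cm tall at spraying.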"}, "[5]": {"tested_on": "ragweed (common ragweed, Ambrosia elatior)", "assay": "Test A preemergence", "conditions": "Ambrosia artemisiifolia, pre-emergence, 240 h, 0 to 100 scale where 0 is no effect and 100 is complete control, read-out: Ragweed plant response rating", "how_it_was_run": "as §2"}, "[6]": {"tested_on": "barnyardgrass (Echinochloa crus-galli)", "assay": "Test A preemergence", "conditions": "Echinochloa crus-galli, pre-emergence, 240 h, 0 to 100 scale where 0 is no effect and 100 is complete control, read-out: Barnyardgrass plant response rating", "how_it_was_run": "as §2"}, "Kochia (Kochia scoparia) [7]": {"tested_on": "Kochia (Kochia scoparia)", "assay": "Test A preemergence", "conditions": "Bassia scoparia, pre-emergence, 240 h, 0 to 100 scale where 0 is no effect and 100 is complete control, read-out: Kochia plant response rating", "how_it_was_run": "as §2"}, "[8]": {"tested_on": "giant foxtail (Setaria faberii)", "assay": "Test A preemergence", "conditions": "Setaria faberi, pre-emergence, 240 h, 0 to 100 scale where 0 is no effect and 100 is complete control, read-out: Foxtail, Giant plant response rating", "how_it_was_run": "as §2"}, "[9]": {"tested_on": "pigweed (Amaranthus retroflexus)", "assay": "Test A preemergence", "conditions": "Amaranthus retroflexus, pre-emergence, 240 h, 0 to 100 scale where 0 is no effect and 100 is complete control, read-out: Pigweed plant response rating"}, "[10]": {"tested_on": "ryegrass, Italian (Italian ryegrass, Lolium multiflorum)", "assay": "Test A postemergence", "conditions": "Lolium multiflorum, post-emergence, 240 h, Postemergence, read-out: Ryegrass, Italian plant response rating (0 to 100 scale)", "how_it_was_run": "as §2"}, "[11]": {"tested_on": "ragweed (common ragweed, Ambrosia elatior)", "assay": "Test A postemergence", "conditions": "Ambrosia artemisiifolia, post-emergence, 240 h, Postemergence, read-out: Ragweed plant response rating (0 to 100 scale)", "how_it_was_run": "as §2"}, "[12]": {"tested_on": "wheat (Triticum aestivum)", "assay": "Test A postemergence", "conditions": "Triticum aestivum, post-emergence, 240 h, Postemergence, read-out: Wheat plant response rating (0 to 100 scale)", "how_it_was_run": "as §2"}, "[13]": {"tested_on": "barnyardgrass (Echinochloa crus-galli)", "assay": "Test A postemergence", "conditions": "Echinochloa crus-galli, post-emergence, 240 h, Postemergence", "how_it_was_run": "as §2"}, "[14]": {"tested_on": "Galium (catchweed bedstraw, Galium aparine)", "assay": "Test A postemergence", "conditions": "Galium, post-emergence, 240 h, Postemergence, read-out: Galium plant response rating (0 to 100 scale)", "how_it_was_run": "as §2"}, "Kochia (Kochia scoparia) [15]": {"tested_on": "Kochia (Kochia scoparia)", "assay": "Test A postemergence", "conditions": "Bassia scoparia, post-emergence, 240 h, Postemergence, read-out: Kochia plant response rating (0 to 100 scale)", "how_it_was_run": "as §2"}, "corn (Zea mays)": {"tested_on": "corn (Zea mays)", "assay": "Test A postemergence", "conditions": "Zea mays, post-emergence, 240 h, Postemergence, read-out: Corn plant response rating (0 to 100 scale)", "how_it_was_run": "as §2"}, "[16]": {"tested_on": "blackgrass (Alopecurus myosuroides)", "assay": "Test A postemergence", "conditions": "Alopecurus myosuroides, post-emergence, 240 h, Postemergence, read-out: Blackgrass plant response rating (0 to 100 scale)", "how_it_was_run": "as §2"}, "[17]": {"tested_on": "giant foxtail (Setaria faberii)", "assay": "Test A postemergence", "conditions": "Setaria faberi, post-emergence, 240 h, Postemergence, read-out: Foxtail, Giant plant response rating (0 to 100 scale)", "how_it_was_run": "as §2"}, "[18]": {"tested_on": "pigweed (Amaranthus retroflexus)", "assay": "Test A postemergence", "conditions": "Amaranthus retroflexus, post-emergence, 240 h, Postemergence, read-out: Pigweed plant response rating (0 to 100 scale)", "how_it_was_run": "as §2"}, "[19]": {"conditions": "125 g ai/ha, preemergence, visual injury rating, approximately 10 d"}, "[20]": {"conditions": "125 g ai/ha, visual rating about 10 d after treatment"}, "[21]": {"conditions": "31 g ai/ha, 0 is no effect, 100 is complete control"}},
  "data": [
    {"smiles": "O=C(Nc1cccc(F)c1F)[C@H]1C(=O)N(CC(F)F)C[C@@H]1c1cccc(C(F)(F)F)c1", "note": "[Compound 1296]", "values": [
      {"measurement": "pest or weed control at 250 g/ha", "setting": "[1]", "value": 0, "unit": "%"},
      {"measurement": "pest or weed control at 250 g/ha", "setting": "[2]", "value": 0, "unit": "%"},
      {"measurement": "pest or weed control at 250 g/ha", "setting": "[3]", "value": 15, "unit": "%"},
      {"measurement": "pest or weed control at 250 g/ha", "setting": "rice (Oryra sativa)", "value": 30, "unit": "%"},
      {"measurement": "pest or weed control at 31 g/ha", "setting": "[4]; 31 g ai/ha, Preemergence", "value": 0, "unit": "%"},
      {"measurement": "pest or weed control at 125 g/ha", "setting": "[4]; [19]", "value": 0, "unit": "%"},
      {"measurement": "pest or weed control at 31 g/ha", "setting": "[5]; 31 g ai/ha, Preemergence", "value": 0, "unit": "%"},
      {"measurement": "pest or weed control at 125 g/ha", "setting": "[5]; [19]", "value": 0, "unit": "%"},
      {"measurement": "pest or weed control at 31 g/ha", "setting": "[6]; 31 g ai/ha, Preemergence", "value": 20, "unit": "%"},
      {"measurement": "pest or weed control at 125 g/ha", "setting": "[6]; [19]", "value": 70, "unit": "%"},
      {"measurement": "pest or weed control at 31 g/ha", "setting": "Kochia (Kochia scoparia) [7]; 31 g ai/ha, Preemergence", "value": 0, "unit": "%"},
      {"measurement": "pest or weed control at 125 g/ha", "setting": "Kochia (Kochia scoparia) [7]; [19]", "value": 0, "unit": "%"},
      {"measurement": "pest or weed control at 31 g/ha", "setting": "[8]; 31 g ai/ha, Preemergence", "value": 20, "unit": "%"},
      {"measurement": "pest or weed control at 125 g/ha", "setting": "[8]; [19]", "value": 60, "unit": "%"},
      {"measurement": "pest or weed control at 31 g/ha", "setting": "[9]; 31 g ai/ha, Preemergence", "value": 0, "unit": "%"},
      {"measurement": "pest or weed control at 125 g/ha", "setting": "[9]; [19]", "value": 0, "unit": "%"},
      {"measurement": "pest or weed control at 125 g/ha", "setting": "[10]; [20]", "value": 0, "unit": "%"},
      {"measurement": "pest or weed control at 31 g/ha", "setting": "[10]; [21]", "value": 0, "unit": "%"},
      {"measurement": "pest or weed control at 125 g/ha", "setting": "[11]; [20]", "value": 0, "unit": "%"},
      {"measurement": "pest or weed control at 31 g/ha", "setting": "[11]; [21]", "value": 0, "unit": "%"},
      {"measurement": "plant injury at 125 g/ha", "setting": "[12]; [20]", "value": 0, "unit": "%"},
      {"measurement": "plant injury at 31 g/ha", "setting": "[12]; [21]", "value": 0, "unit": "%"},
      {"measurement": "pest or weed control at 125 g/ha", "setting": "[13]; 125 g ai/ha, visual rating about 10 d after treatment, read-out: Barnyardgrass plant response rating (0 to 100 scale, 0 no effect, 100 complete control)", "value": 30, "unit": "%"},
      {"measurement": "pest or weed control at 31 g/ha", "setting": "[13]; 31 g ai/ha, 0 is no effect, 100 is complete control, read-out: Barnyardgrass plant response rating (0 to 100 scale)", "value": 0, "unit": "%"},
      {"measurement": "pest or weed control at 125 g/ha", "setting": "[14]; [20]", "value": 0, "unit": "%"},
      {"measurement": "pest or weed control at 31 g/ha", "setting": "[14]; [21]", "value": 0, "unit": "%"},
      {"measurement": "pest or weed control at 125 g/ha", "setting": "Kochia (Kochia scoparia) [15]; [20]", "value": 0, "unit": "%"},
      {"measurement": "pest or weed control at 31 g/ha", "setting": "Kochia (Kochia scoparia) [15]; [21]", "value": 0, "unit": "%"},
      {"measurement": "plant injury at 125 g/ha", "setting": "corn (Zea mays); [20]", "value": 0, "unit": "%"},
      {"measurement": "plant injury at 31 g/ha", "setting": "corn (Zea mays); [21]", "value": 0, "unit": "%"},
      {"measurement": "pest or weed control at 125 g/ha", "setting": "[16]; [20]", "value": 0, "unit": "%"},
      {"measurement": "pest or weed control at 31 g/ha", "setting": "[16]; [21]", "value": 0, "unit": "%"},
      {"measurement": "pest or weed control at 125 g/ha", "setting": "[17]; [20]", "value": 30, "unit": "%"},
      {"measurement": "pest or weed control at 31 g/ha", "setting": "[17]; [21]", "value": 0, "unit": "%"},
      {"measurement": "pest or weed control at 125 g/ha", "setting": "[18]; [20]", "value": 0, "unit": "%"},
      {"measurement": "pest or weed control at 31 g/ha", "setting": "[18]; [21]", "value": 0, "unit": "%"}
    ]}
  ]
}
